Assays:
Type in all cases: in vivo
velvetleaf [1] = experiment: Upland soil treatment test (8); details: 300 g a.i./hectare, 20th day after spraying
Procedure: (§1) 90 Parts by weight of the above carrier and 10 parts by weight of each of Compounds obtained in the above Preparation Examples were uniformly pulverized and mixed to obtain herbicides. Further, for Herbicide Comparative Examples, comparative herbicides were prepared by uniformly pulverizing and mixing 90 parts by weight of the above carrier and 10 parts by weight of each of the following Compounds x, y, A, B and C.
(§2) (8) Biological Test (Upland Soil Treatment Test, Herbicide Examples 48-52 and Herbicide Comparative Examples 13 and 14)
(§3) Seeds of weeds such as large crabgrass, barnyard brass, green foxtail, cocklebur, velvetleaf and slender amarnth and seeds of corn, wheat and barley were sown in 1/5,000-are Wagner pots filled with upland soil, and covert with upland soil. Then, a predetermined amount of the herbicide prepared in the above (1) was suspended in water and uniformly sprayed onto the soil surface. Thereafter, the plant were grown in the greenhouse, and on the 20th day after the spraying treatment, the herbicide was evaluated for herbicidal efficacy.
(§4) The herbicidal efficacy and the phytotoxicity to crops are shown on the basis of the ratings described in (2) Foliar treatment test.

cocklebur [2] = experiment: Upland soil treatment test (8); details: 300 g a.i./hectare, 20th day after spraying
Procedure: as §1, §2, §3, §4

green foxtail [3] = experiment: Upland soil treatment test (8); details: 300 g a.i./hectare, 20th day after spraying
Procedure: as §1, §2, §3, §4

large crabgrass [4] = experiment: Upland soil treatment test (8); details: 300 g a.i./hectare, 20th day after spraying
Procedure: as §1, §2, §3, §4

barnyard grass [5] = experiment: Upland soil treatment test (8); details: 300 g a.i./hectare, 20th day after spraying
Procedure: as §1, §2, §3, §4

slender amaranth [6] = experiment: Upland soil treatment test (8); details: 300 g a.i./hectare, 20th day after spraying
Procedure: as §1, §2, §3, §4

velvetleaf [7] = experiment: Foliar treatment test (2); details: dosage 3 g a.i./are, 20th day after treatment
Procedure: as §1
(§5) (2) Biological Test (Foliar Treatment Test, Herbicide Examples 1 and 2 and Herbicide Comparative Examples 1 and 2)
(§6) Seeds of weeds such as large crabgrass, barnyard grass, green foxtail, cocklebur, velvetleaf and slender amaranth and seeds of corn, wheat and barley were sown in 1/5,000-are Wagner pots filled with upland soil, and covered with upland soil. The seeds were grown in a greenhouse, and at the stage of 1˜2 leaves of these plants, a predetermined amount of the herbicide prepared in the above (1) was suspended in water and uniformly sprayed onto leaf and stalk portions at a rate of 200 liter/10 are. Thereafter, the plants were grown in the greenhouse, and on 20th day after the treatment, the herbicide was evaluated for herbicidal efficacy.
(§7) The herbicidal efficacy and phytotoxcity to crops were shown on the basis of the following ratings.
(§8) The ratio of remaining plant weight to non-treated was determined on the basis of the ratio of remaining plant weight to non-treated=(remaining plant weight in treated plot/remaining plant weight in non-treated plot)×100. This is also applicable to biological tests hereinafter.

cocklebur [8] = experiment: Foliar treatment test (2); details: dosage 3 g a.i./are, 20th day after treatment
Procedure: as §1, §5, §6, §7, §8

green foxtail [9] = experiment: Foliar treatment test (2); details: dosage 3 g a.i./are, 20th day after treatment
Procedure: as §1, §5, §6, §7, §8

large crabgrass [10] = experiment: Foliar treatment test (2); details: dosage 3 g a.i./are, 20th day after treatment
Procedure: as §1, §5, §6, §7, §8

barnyard grass [11] = experiment: Foliar treatment test (2); details: dosage 3 g a.i./are, 20th day after treatment
Procedure: as §1, §5, §6, §7, §8

slender amaranth [12] = experiment: Foliar treatment test (2); details: dosage 3 g a.i./are, 20th day after treatment
Procedure: as §1, §5, §6, §7, §8

velvetleaf [13] = experiment: Upland soil treatment test (3); details: dosage 3 g a.i./are, 20th day after treatment
Procedure: as §1
(§9) (3) Biological Test (Upland Soil Treatment Test, Herbicide Examples 3 and 4 and Herbicide Comparative Examples 3 and 4)
as §3, with “barnyardgrass,” for “barnyard brass,”, “amaranth” for “amarnth”, “covered” for “covert”, “plants” for “plant”, “on” for “on the”, “the” for “the spraying”
as §4

cocklebur [14] = experiment: Upland soil treatment test (3); details: dosage 3 g a.i./are, 20th day after treatment
Procedure: as §1, §9
as §3, with “barnyardgrass,” for “barnyard brass,”, “amaranth” for “amarnth”, “covered” for “covert”, “plants” for “plant”, “on” for “on the”, “the” for “the spraying”
as §4

green foxtail [15] = experiment: Upland soil treatment test (3); details: dosage 3 g a.i./are, 20th day after treatment
Procedure: as §1, §9
as §3, with “barnyardgrass,” for “barnyard brass,”, “amaranth” for “amarnth”, “covered” for “covert”, “plants” for “plant”, “on” for “on the”, “the” for “the spraying”
as §4

large crabgrass [16] = experiment: Upland soil treatment test (3); details: dosage 3 g a.i./are, 20th day after treatment
Procedure: as §1, §9
as §3, with “barnyardgrass,” for “barnyard brass,”, “amaranth” for “amarnth”, “covered” for “covert”, “plants” for “plant”, “on” for “on the”, “the” for “the spraying”
as §4

barnyard grass [17] = experiment: Upland soil treatment test (3); details: dosage 3 g a.i./are, 20th day after treatment
Procedure: as §1, §9
as §3, with “barnyardgrass,” for “barnyard brass,”, “amaranth” for “amarnth”, “covered” for “covert”, “plants” for “plant”, “on” for “on the”, “the” for “the spraying”
as §4

slender amaranth [18] = experiment: Upland soil treatment test (3); details: dosage 3 g a.i./are, 20th day after treatment
Procedure: as §1, §9
as §3, with “barnyardgrass,” for “barnyard brass,”, “amaranth” for “amarnth”, “covered” for “covert”, “plants” for “plant”, “on” for “on the”, “the” for “the spraying”
as §4

velvetleaf [19] = experiment: Foliar treatment test (7); details: 300 g a.i./hectare, 20th day after spraying
Procedure: as §1
(§10) (7) Biological Test (Foliar Treatment Test, Herbicide Examples 43-47 and Comparative Examples 11 and 12)
as §6, with “large crabgrass, barnyardgrass, green foxtail,” for “large crabgrass, barnyard grass, green foxtail,”, “stage of 1 to 2 leaves of” for “stage of 1˜2 leaves of”, “200 liter/10 ares. Thereafter, the” for “200 liter/10 are. Thereafter, the”, “and on the 20th day” for “and on 20th day”, “after the spraying treatment, the” for “after the treatment, the”
as §7, §8

barnyardgrass = experiment: Foliar treatment test (7); details: 300 g a.i./hectare, 20th day after spraying
Procedure: as §1, §10
as §6, with “large crabgrass, barnyardgrass, green foxtail,” for “large crabgrass, barnyard grass, green foxtail,”, “stage of 1 to 2 leaves of” for “stage of 1˜2 leaves of”, “200 liter/10 ares. Thereafter, the” for “200 liter/10 are. Thereafter, the”, “and on the 20th day” for “and on 20th day”, “after the spraying treatment, the” for “after the treatment, the”
as §7, §8

cocklebur [20] = experiment: Foliar treatment test (7); details: 300 g a.i./hectare, 20th day after spraying
Procedure: as §1, §10
as §6, with “large crabgrass, barnyardgrass, green foxtail,” for “large crabgrass, barnyard grass, green foxtail,”, “stage of 1 to 2 leaves of” for “stage of 1˜2 leaves of”, “200 liter/10 ares. Thereafter, the” for “200 liter/10 are. Thereafter, the”, “and on the 20th day” for “and on 20th day”, “after the spraying treatment, the” for “after the treatment, the”
as §7, §8

green foxtail [21] = experiment: Foliar treatment test (7); details: 300 g a.i./hectare, 20th day after spraying
Procedure: as §1, §10
as §6, with “large crabgrass, barnyardgrass, green foxtail,” for “large crabgrass, barnyard grass, green foxtail,”, “stage of 1 to 2 leaves of” for “stage of 1˜2 leaves of”, “200 liter/10 ares. Thereafter, the” for “200 liter/10 are. Thereafter, the”, “and on the 20th day” for “and on 20th day”, “after the spraying treatment, the” for “after the treatment, the”
as §7, §8

large crabgrass [22] = experiment: Foliar treatment test (7); details: 300 g a.i./hectare, 20th day after spraying
Procedure: as §1, §10
as §6, with “large crabgrass, barnyardgrass, green foxtail,” for “large crabgrass, barnyard grass, green foxtail,”, “stage of 1 to 2 leaves of” for “stage of 1˜2 leaves of”, “200 liter/10 ares. Thereafter, the” for “200 liter/10 are. Thereafter, the”, “and on the 20th day” for “and on 20th day”, “after the spraying treatment, the” for “after the treatment, the”
as §7, §8

slender amaranth [23] = experiment: Foliar treatment test (7); details: 300 g a.i./hectare, 20th day after spraying
Procedure: as §1, §10
as §6, with “large crabgrass, barnyardgrass, green foxtail,” for “large crabgrass, barnyard grass, green foxtail,”, “stage of 1 to 2 leaves of” for “stage of 1˜2 leaves of”, “200 liter/10 ares. Thereafter, the” for “200 liter/10 are. Thereafter, the”, “and on the 20th day” for “and on 20th day”, “after the spraying treatment, the” for “after the treatment, the”
as §7, §8
Note: ranges in brackets are in %.

**Q.** How did the “Herbicidal Efficacy velvetleaf” value (velvetleaf [1]) turn out when `CCn1ncc(C(=O)c2ccc(S(C)(=O)=O)cc2C)c1O` [y, reference compound] was run?
**A.** The value was 0 (81-100).

**Q.** What about the “Herbicidal Efficacy cocklebur” value (cocklebur [2]) of the same molecule?
**A.** The value was 0 (81-100).

**Q.** And the “Herbicidal Efficacy green foxtail” value (green foxtail [3])?
**A.** Its value is 2 (41-60).

**Q.** What about the “Herbicidal Efficacy large crabgrass” value (large crabgrass [4]) of the same molecule?
**A.** The value was 3 (21-40).

**Q.** And the “Herbicidal Efficacy barnyard grass” value (barnyard grass [5])?
**A.** The value was 3 (21-40).

**Q.** What about the “Herbicidal Efficacy slender amaranth” value (slender amaranth [6]) of the same molecule?
**A.** Its value is 0 (81-100).

**Q.** What about the “Herbicidal Efficacy velvetleaf” value (velvetleaf [7]) of the same molecule?
**A.** Its value is 3 (21-40).

**Q.** What about the “Herbicidal Efficacy cocklebur” value (cocklebur [8]) of the same molecule?
**A.** Its value is 3 (21-40).

**Q.** And the “Herbicidal Efficacy green foxtail” value (green foxtail [9])?
**A.** Its value is 0 (81-100).

**Q.** And the “Herbicidal Efficacy large crabgrass” value (large crabgrass [10])?
**A.** The value was 0 (81-100).

**Q.** What about the “Herbicidal Efficacy barnyard grass” value (barnyard grass [11]) of the same molecule?
**A.** The value was 0 (81-100).

**Q.** What about the “Herbicidal Efficacy slender amaranth” value (slender amaranth [12]) of the same molecule?
**A.** Its value is 2 (41-60).

**Q.** What about the “Herbicidal Efficacy velvetleaf” value (velvetleaf [13]) of the same molecule?
**A.** Its value is 0 (81-100).

**Q.** What about the “Herbicidal Efficacy cocklebur” value (cocklebur [14]) of the same molecule?
**A.** The value was 0 (81-100).

**Q.** What about the “Herbicidal Efficacy green foxtail” value (green foxtail [15]) of the same molecule?
**A.** The value was 2 (41-60).

**Q.** What about the “Herbicidal Efficacy large crabgrass” value (large crabgrass [16]) of the same molecule?
**A.** Its value is 3 (21-40).

**Q.** What about the “Herbicidal Efficacy barnyard grass” value (barnyard grass [17]) of the same molecule?
**A.** The value was 2 (41-60).

**Q.** What about the “Herbicidal Efficacy slender amaranth” value (slender amaranth [18]) of the same molecule?
**A.** Its value is 0 (81-100).

**Q.** And the “Herbicidal Efficacy velvetleaf” value (velvetleaf [19])?
**A.** Its value is 3 (21-40).

**Q.** And the “Herbicidal Efficacy barnyard grass” value (barnyardgrass)?
**A.** Its value is 0 (81-100).

**Q.** And the “Herbicidal Efficacy cocklebur” value (cocklebur [20])?
**A.** The value was 3 (21-40).

**Q.** What about the “Herbicidal Efficacy green foxtail” value (green foxtail [21]) of the same molecule?
**A.** The value was 0 (81-100).

**Q.** What about the “Herbicidal Efficacy large crabgrass” value (large crabgrass [22]) of the same molecule?
**A.** Its value is 0 (81-100).

**Q.** And the “Herbicidal Efficacy slender amaranth” value (slender amaranth [23])?
**A.** The value was 2 (41-60).

**Q.** For `CCn1ncc(C(=O)c2cc(C)c3c(c2C)C=CCS3)c1O` [Compound 47-1, 5,8-dimethyl-6-(1-ethyl-5-hydroxypyrazol-4-yl)carbonyl-3,4-dehydrothiochroman], which “Herbicidal Efficacy velvetleaf” value (velvetleaf [1]) is on record?
**A.** The value was 0 (81-100).

**Q.** And the “Herbicidal Efficacy cocklebur” value (cocklebur [2])?
**A.** The value was 0 (81-100).

**Q.** And the “Herbicidal Efficacy green foxtail” value (green foxtail [3])?
**A.** The value was 0 (81-100).

**Q.** What about the “Herbicidal Efficacy large crabgrass” value (large crabgrass [4]) of the same molecule?
**A.** Its value is 0 (81-100).

**Q.** And the “Herbicidal Efficacy barnyard grass” value (barnyard grass [5])?
**A.** The value was 0 (81-100).

**Q.** And the “Herbicidal Efficacy slender amaranth” value (slender amaranth [6])?
**A.** The value was 5 (0).

**Q.** What about the “Herbicidal Efficacy velvetleaf” value (velvetleaf [19]) of the same molecule?
**A.** The value was 4 (1-20).

**Q.** And the “Herbicidal Efficacy barnyard grass” value (barnyardgrass)?
**A.** The value was 0 (81-100).

**Q.** What about the “Herbicidal Efficacy cocklebur” value (cocklebur [20]) of the same molecule?
**A.** The value was 5 (0).

**Q.** What about the “Herbicidal Efficacy green foxtail” value (green foxtail [21]) of the same molecule?
**A.** Its value is 0 (81-100).

**Q.** And the “Herbicidal Efficacy large crabgrass” value (large crabgrass [22])?
**A.** Its value is 0 (81-100).

**Q.** What about the “Herbicidal Efficacy slender amaranth” value (slender amaranth [23]) of the same molecule?
**A.** Its value is 0 (81-100).
